Entries after “also recorded” stand apart in the source; their conditions may differ. Where a name gives a salt, the structure may show the parent alone. Read-outs that look alike come from different tables or passages of the source.
Key:
[1] = target: T1, soybean lipoxygenase-1 (sLO-1) (Glycine max, UniProt P08170); assay type: biochemical; settings: for effect of LO product on the endogenous substrate mixture ratio ALA:LA: up to 5 μM product addition; for effect of inhibitor on the (kcat/KM)^ALA/(kcat/KM)^LA ratio: inhibitor in excess of its IC50 value
T1 sequence (P08170 1-839): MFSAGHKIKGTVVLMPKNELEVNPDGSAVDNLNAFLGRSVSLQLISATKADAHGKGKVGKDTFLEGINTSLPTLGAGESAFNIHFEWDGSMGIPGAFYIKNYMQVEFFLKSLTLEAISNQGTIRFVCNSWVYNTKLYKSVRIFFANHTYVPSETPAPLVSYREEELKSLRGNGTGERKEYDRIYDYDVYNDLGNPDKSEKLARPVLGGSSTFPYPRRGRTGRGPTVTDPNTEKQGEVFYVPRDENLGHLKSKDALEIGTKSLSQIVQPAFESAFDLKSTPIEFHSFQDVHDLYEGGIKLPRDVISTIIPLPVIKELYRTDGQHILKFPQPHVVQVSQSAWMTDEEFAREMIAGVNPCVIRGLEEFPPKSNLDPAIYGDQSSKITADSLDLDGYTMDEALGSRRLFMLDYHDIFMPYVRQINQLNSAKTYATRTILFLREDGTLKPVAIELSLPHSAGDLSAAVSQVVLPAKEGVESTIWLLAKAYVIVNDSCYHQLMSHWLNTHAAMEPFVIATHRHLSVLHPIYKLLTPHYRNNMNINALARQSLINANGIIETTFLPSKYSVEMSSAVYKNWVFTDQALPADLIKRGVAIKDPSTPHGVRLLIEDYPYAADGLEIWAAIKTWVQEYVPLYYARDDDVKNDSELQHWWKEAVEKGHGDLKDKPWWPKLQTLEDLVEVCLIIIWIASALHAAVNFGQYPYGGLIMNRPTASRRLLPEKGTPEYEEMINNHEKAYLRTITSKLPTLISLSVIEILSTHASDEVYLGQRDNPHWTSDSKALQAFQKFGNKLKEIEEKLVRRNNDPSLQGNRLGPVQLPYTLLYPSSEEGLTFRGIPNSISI

[2] = target: T1, soybean lipoxygenase-1 (sLO-1); assay type: biochemical; settings: for effect of LO product on the AA:LA ratio: up to 5 μM product
[3] = system: 15-hLO-1 (human reticulocyte 15-lipoxygenase); settings: cited from earlier work
[4] = target: T1, soybean lipoxygenase-1 (sLO-1); assay: IC50 assay of sLO-1 with PS, OS and OA inhibitors, LA as substrate; assay type: biochemical

Question: Which “effect of LO product on the endogenous substrate mixture ratio ALA:LA” value [1] does the source give for `CCCCC/C=C\C[C@H](O)/C=C/C=C\C/C=C\CCCC(=O)O` [12-HETE, 12-(S)-hydroxyeicosatetraenoic acid] here?
Answer: Its value is “no effect”.

Question: What about the “(kcat/KM)^AA/(kcat/KM)^LA ratio” value ([2]; addition of 12-HETE (5 μM), control 1.8 ± 0.2) of the same compound?
Answer: Its value is 2.4 ± 0.2.

Question: And the “maximum (kcat/KM)^AA/(kcat/KM)^LA ratio at saturating conditions” value ([2]; calculated from saturation curve fit)?
Answer: The value was 5.1 ± 0.3.

Question: And the “binding affinity to sLO-1 weaker than to 15-hLO-1” value ([2]; ratio of half saturation points, sLO-1 vs 15-hLO-1)?
Answer: Its value is roughly 30 fold.

Question: What about the “effect on sLO-1 catalysis” value ([2]; saturating amounts at the allosteric site, both AA and LA as substrate) of the same compound?
Answer: Its value is “inhibit sLO-1”.

Question: What about the “(kcat/KM)^AA/(kcat/KM)^LA ratio of 15-hLO-1” value ([3]; with 12-HETE, increase from 1.8) of the same compound?
Answer: Its value is 2.7.

Question: Which “effect of LO product on the endogenous substrate mixture ratio ALA:LA” value [1] does the source give for `CCCCC[C@H](O)/C=C/C=C\CCCCCCCC(=O)O` [13-HODE, 13-(S)-hydroxyoctadecadienoic acid] here?
Answer: The value was “no effect”.

Question: And the “effect of LO product on the AA:LA ratio” value [2]?
Answer: The value was “no observable effect; also recorded: did not display any observable effect”.

Question: What about the “(kcat/KM)^AA/(kcat/KM)^LA ratio of 15-hLO-1” value ([3]; 5 μM 13-HODE, increase from 1.4) of the same compound?
Answer: Its value is 2.9.

Question: With `CC/C=C\C[C@H](O)/C=C/C=C\CCCCCCCC(=O)O` [13-HOTrE] as the compound, how does the “effect of LO product on the endogenous substrate mixture ratio ALA:LA” value [1] read?
Answer: Its value is “no effect”.

Question: What about the “effect of LO product on the AA:LA ratio” value [2] of the same compound?
Answer: Its value is “no observable effect”.

Question: For `CCCCC/C=C\C/C=C\C/C=C\C/C=C\CCCC(=O)O` [AA, arachidonic acid], which “(kcat/KM)^AA/(kcat/KM)^LA ratio (substrate specificity, no effector)” value ([2]; AA:LA 1:1, 1 μM total substrate, 100 mM Borate pH 9.2, 22 °C) is on record?
Answer: The value was 1.8 ± 0.2.

Question: With `CC/C=C\C/C=C\C/C=C\CCCCCCCC(=O)O` [ALA, α-linolenic acid] as the compound, how does the “(kcat/KM)^ALA/(kcat/KM)^LA ratio (substrate specificity, no effector)” value ([1]; ALA:LA 1:1, 1 μM total substrate, 100 mM Borate pH 9.2, 22 °C) read?
Answer: Its value is 0.75 ± 0.5.

Question: What does the source list for `CCCCCCCC/C=C\CCCCCCCC(=O)O` [OA, oleic acid]?
Answer: effect of inhibitor on the (kcat/KM)^ALA/(kcat/KM)^LA ratio [1]: none of the inhibitors, OS, OA, or PS, affected; effect of inhibitor on the AA:LA substrate ratio ([2]; competitive inhibitor, at IC50 and 5-fold IC50): no effect; IC50 [4]: 11 ± 3 µM

Question: For `CCCCCCCC/C=C\CCCCCCCCOS(=O)(=O)O` [OS, oleyl sulfate], which “effect of inhibitor on the (kcat/KM)^ALA/(kcat/KM)^LA ratio” value [1] is on record?
Answer: The value was “none of the inhibitors, OS, OA, or PS, affected”.

Question: And the AC50 [2]?
Answer: The AC50 was 1.5 ± 0.3 µM.

Question: What about the IC50 [4] of the same compound?
Answer: The IC50 was 1 ± 0.1 µM.
